Target: ABCA4 (Bos taurus, UniProt F1MWM0)
Type: biochemical

Sequence of ABCA4 (F1MWM0 whole entry): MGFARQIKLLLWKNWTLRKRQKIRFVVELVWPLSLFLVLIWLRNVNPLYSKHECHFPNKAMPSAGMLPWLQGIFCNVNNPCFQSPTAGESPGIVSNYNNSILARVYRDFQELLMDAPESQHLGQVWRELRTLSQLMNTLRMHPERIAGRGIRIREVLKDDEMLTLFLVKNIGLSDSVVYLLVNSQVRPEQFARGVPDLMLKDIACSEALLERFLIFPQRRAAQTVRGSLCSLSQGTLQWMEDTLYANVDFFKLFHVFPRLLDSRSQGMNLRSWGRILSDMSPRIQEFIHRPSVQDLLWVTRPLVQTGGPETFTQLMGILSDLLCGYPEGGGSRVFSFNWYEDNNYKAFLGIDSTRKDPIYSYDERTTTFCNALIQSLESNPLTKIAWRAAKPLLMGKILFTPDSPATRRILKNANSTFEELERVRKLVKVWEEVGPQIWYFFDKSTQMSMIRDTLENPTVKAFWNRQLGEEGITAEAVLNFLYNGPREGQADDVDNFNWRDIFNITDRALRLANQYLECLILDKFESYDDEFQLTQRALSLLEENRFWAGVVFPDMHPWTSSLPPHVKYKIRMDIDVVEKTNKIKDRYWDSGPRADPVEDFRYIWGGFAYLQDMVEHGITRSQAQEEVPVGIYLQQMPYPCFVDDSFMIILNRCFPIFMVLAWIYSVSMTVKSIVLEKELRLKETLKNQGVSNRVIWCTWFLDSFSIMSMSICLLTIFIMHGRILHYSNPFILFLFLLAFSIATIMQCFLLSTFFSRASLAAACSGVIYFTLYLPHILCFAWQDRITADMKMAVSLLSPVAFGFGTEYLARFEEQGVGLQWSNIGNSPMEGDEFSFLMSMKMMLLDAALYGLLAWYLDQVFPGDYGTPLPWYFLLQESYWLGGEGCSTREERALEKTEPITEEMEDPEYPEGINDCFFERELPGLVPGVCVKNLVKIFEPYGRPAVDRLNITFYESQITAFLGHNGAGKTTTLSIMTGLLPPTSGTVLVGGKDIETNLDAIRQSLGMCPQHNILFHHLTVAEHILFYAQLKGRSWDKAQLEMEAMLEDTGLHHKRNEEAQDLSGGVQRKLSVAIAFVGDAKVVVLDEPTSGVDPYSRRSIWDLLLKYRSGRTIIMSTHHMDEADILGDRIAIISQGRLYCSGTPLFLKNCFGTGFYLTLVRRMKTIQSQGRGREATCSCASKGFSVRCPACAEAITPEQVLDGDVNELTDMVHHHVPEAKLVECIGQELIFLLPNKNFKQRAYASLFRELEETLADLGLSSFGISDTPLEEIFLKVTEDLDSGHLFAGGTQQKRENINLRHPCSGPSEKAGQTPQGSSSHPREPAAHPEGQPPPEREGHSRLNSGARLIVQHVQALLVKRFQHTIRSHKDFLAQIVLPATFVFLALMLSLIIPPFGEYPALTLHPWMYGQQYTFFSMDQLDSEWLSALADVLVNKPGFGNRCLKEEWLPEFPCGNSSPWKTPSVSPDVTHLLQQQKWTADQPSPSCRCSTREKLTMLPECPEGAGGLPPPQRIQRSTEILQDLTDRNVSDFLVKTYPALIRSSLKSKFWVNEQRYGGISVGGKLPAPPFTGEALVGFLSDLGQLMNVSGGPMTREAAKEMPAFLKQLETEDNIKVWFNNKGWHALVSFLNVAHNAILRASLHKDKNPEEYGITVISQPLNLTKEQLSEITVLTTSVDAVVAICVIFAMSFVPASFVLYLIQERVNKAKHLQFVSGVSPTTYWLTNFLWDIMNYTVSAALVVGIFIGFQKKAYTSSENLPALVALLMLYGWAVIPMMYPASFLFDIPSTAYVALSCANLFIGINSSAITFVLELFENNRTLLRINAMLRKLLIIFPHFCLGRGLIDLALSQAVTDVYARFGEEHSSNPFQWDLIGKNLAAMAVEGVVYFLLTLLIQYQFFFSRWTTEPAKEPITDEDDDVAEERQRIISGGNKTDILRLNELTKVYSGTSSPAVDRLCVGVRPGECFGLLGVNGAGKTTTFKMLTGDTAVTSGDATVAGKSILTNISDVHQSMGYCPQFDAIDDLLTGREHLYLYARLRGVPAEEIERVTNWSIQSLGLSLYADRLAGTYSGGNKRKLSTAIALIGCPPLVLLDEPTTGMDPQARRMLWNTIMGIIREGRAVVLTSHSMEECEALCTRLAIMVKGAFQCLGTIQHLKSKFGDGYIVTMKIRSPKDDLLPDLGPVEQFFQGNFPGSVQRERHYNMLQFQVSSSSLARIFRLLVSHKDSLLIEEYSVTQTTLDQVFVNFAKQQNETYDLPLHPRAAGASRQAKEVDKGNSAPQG

IC50: 9 µM
Substance: N-retinyl-PE
